Data reported in patent US10570179B2, “Substituted urea depsipeptide analogs as activators of the CLPP endopeptidase” (priority 2016, dated 2020).
Numbered stars: 1 amine (or outer) side, 2 acyl side, 3 side chain; on linkers, the order of the positions; unused ones are H or OH. Bridge positions count the residues as written; N and C are the ends. Square brackets hold non-standard residues; d marks the D form. Peptide text beside a SMILES is read from it. * marks the point of attachment. Phe(3-CF3) = N[C@@H](Cc1cccc(C(F)(F)F)c1)C(=O)O; Piperazine(2S-CO,4-Me) = CN1CCN[C@H](C(=O)O)C1; NH(1,3-benzodioxol-5-yl) = c1cc2c(cc1N*)OCO2; Phe(3-OMe) = COc1cccc(C[C@H](N)C(=O)O)c1; Phe(3-Me) = Cc1cccc(C[C@H](N)C(=O)O)c1; X4 = O=C1CN([*:1])[C@H](C(=O)[*:2])CN1; NH(4-Cl-2-F-phenyl) = Fc1cc(Cl)ccc1N*; Pro(4R-Me) = C[C@H]1CN[C@H](C(=O)O)C1; NH(4-Et-phenyl) = CCc1ccc(N*)cc1; NH(4-Me-phenyl) = Cc1ccc(N*)cc1; aThr = C[C@H](O)[C@H](N)C(=O)O; Pip = O=C(O)[C@@H]1CCCCN1; X3 = c1cc2c(cc1N*)OCCO2; CO = O=C([*:1])[*:2]; X2 = Fc1cc(N*)ccc1Cl

Key:
S. aureus ClpP (Sa-ClpP) = target: T1, S. aureus ClpP (Sa-ClpP) (Staphylococcus aureus, UniProt Q2G036); assay: Casein-BODIPY digestion assay (ClpP activation); assay type: biochemical
T1 construct: made in house; host or cells: E. coli BL21 (DE3)

S. aureus ΔClpP = assay: Minimal inhibitory concentration, microbroth dilution; assay type: cell-based, Staphylococcus aureus; conditions: MIC; ClpP inactivated
In short: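 MIC is recorded by eye as the lowest drug concentration that stops bacterial growth. Compound is serially diluted twofold in broth, starting at 200 μM final, and bacteria are added at roughly 10^5 cfu/mL. Incubation runs overnight at 37 °C under aerobic conditions, per CLSI guidance.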

Plasma stability assay = assay type: in vitro ADME, mouse
Experimental: The plasma stability property of early drug discovery compounds can influence the in vivo efficacy of the test compounds/drugs. Human and/or mouse plasma degradation is determined using multiple time points to monitor the rate of disappearance of the parent compound during incubation.
Sample preparation for plasma stability was modified from Di et al. (2005) Int. J. Pharm. 297(1-2): 110-119. A set of incubation times of 0, 3, 24, and 48 hour were used. DMSO stock solutions of test compounds were prepared at 10 mM concentration. 1.8 μL of each test compound was each added directly to 1.8 mL of human/mouse plasma to get the final concentration of 10 μM. This compound/matrix was mixed and 70 μL was transferred to 8 time points plates (each in triplicate wells). For the Time 0 plate, 210 μL of cold acetonitrile with internal standard (4 μg/mL warfarin) was added to each well and no incubation needed. For other seven time points' plate, the plate was incubated at 37° C. for required time, followed by quenching of the reaction by adding 210 μL of cold acetonitrile with internal standard (4 μg/ml warfarin) to each well. All of the plates were sealed and mixed well at 600 rpm for 10 min and were centrifuged at 4000 rpm for 20 min. The supernatants (120 μL) were transferred to analytical plates for analysis by LCMS. Conditions for Waters ACQUITY-UPLC-MS-UV system was described separately. The plasma stability was evaluated via the half-life from least-squares fit of the multiple time points based on first-order kinetics.

T1 sequence (Q2G036 whole entry): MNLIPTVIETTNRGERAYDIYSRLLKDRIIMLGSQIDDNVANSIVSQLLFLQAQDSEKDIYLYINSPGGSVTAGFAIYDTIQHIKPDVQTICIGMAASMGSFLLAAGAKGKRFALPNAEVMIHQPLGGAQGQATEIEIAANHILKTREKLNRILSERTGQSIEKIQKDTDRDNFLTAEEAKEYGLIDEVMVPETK

Row | SMILES | EC50 (S. aureus ClpP (Sa-ClpP)) | Minimal Inhibitory Concentrations (μM) S. aureus ΔClpP (S. aureus ΔClpP) | Mouse (Plasma stability assay; mouse, 10 μM) | Mouse (Plasma stability assay; plasma stability half-life, mouse plasma, 37° C.)
1 | Cc1cccc(C[C@H](NC(=O)Nc2ccc(Cl)cc2F)C(=O)N[C@H]2COC(=O)[C@@H]3C[C@@H](C)CN3C(=O)[C@H](C)NC(=O)[C@@H]3CN(C)CCN3C(=O)[C@@H]3CCCN3C2=O)c1 [Compound 13, (S)-2-(3-(4-CHLORO-2-FLUOROPHENYL)UREIDO)-3-(M-TOLYL)-N-((6AS,12S,15AS,17R,21S,23AS)-2,17,21-TRIMETHYL-6,11,15,20,23-PENTAOXOOCTADECAHYDRO-2H,6H,11H,15H-PYRAZINO[2,1-I]DIPYRROLO[2,1-C:2′,1′-L][1]OXA[4,7,10,13]TETRAAZACYCLOHEXADECIN-12-YL)PROPANAMIDE] ({NH(4-Cl-2-F-phenyl)-CO}-[Phe(3-Me)]SP[Piperazine(2S-CO,4-Me)]A[Pro(4R-Me)]; ester 2-C) | 1520 ± 100 nM | >20 µM | 10.74 ± 0.8 h | 
2 | Cc1cccc(C[C@H](NC(=O)Nc2ccc(Cl)c(F)c2)C(=O)N[C@H]2COC(=O)[C@@H]3C[C@@H](C)CN3C(=O)[C@H](C)NC(=O)[C@@H]3CN(C)CCN3C(=O)[C@@H]3CCCN3C2=O)c1 [Compound 14, (S)-2-(3-(4-CHLORO-3-FLUOROPHENYL)UREIDO)-3-(M-TOLYL)-N-((6AS,12S,15AS,17R,21S,23AS)-2,17,21-TRIMETHYL-6,11,15,20,23-PENTAOXOOCTADECAHYDRO-2H,6H,11H,15H-PYRAZINO[2,1-I]DIPYRROLO[2,1-C:2′,1′-L][1]OXA[4,7,10,13]TETRAAZACYCLOHEXADECIN-12-YL)PROPANAMIDE] ({X2-CO}-[Phe(3-Me)]SP[Piperazine(2S-CO,4-Me)]A[Pro(4R-Me)]; ester 2-C) | 1410 ± 200 nM | >20 µM | 9.55 ± 0.8 h | 
3 | Cc1ccc(NC(=O)N[C@@H](Cc2cccc(C)c2)C(=O)N[C@H]2COC(=O)[C@@H]3C[C@@H](C)CN3C(=O)[C@H](C)NC(=O)[C@@H]3CN(C)CCN3C(=O)[C@@H]3CCCN3C2=O)cc1 [Compound 15, (S)-3-(M-TOLYL)-2-(3-(P-TOLYL)UREIDO)-N-((6AS,12S,15AS,17R,21S,23AS)-2,17,21-TRIMETHYL-6,11,15,20,23-PENTAOXOOCTADECAHYDRO-2H,6H,11H,15H-PYRAZINO[2,1-I]DIPYRROLO[2,1-C:2′,1′-L][1]OXA[4,7,10,13]TETRAAZACYCLOHEXADECIN-12-YL)PROPANAMIDE] ({NH(4-Me-phenyl)-CO}-[Phe(3-Me)]SP[Piperazine(2S-CO,4-Me)]A[Pro(4R-Me)]; ester 2-C) | 1580 ± 200 nM | >20 µM |  | 5.95 ± 0.6 h
4 | CCc1ccc(NC(=O)N[C@@H](Cc2cccc(C)c2)C(=O)N[C@H]2COC(=O)[C@@H]3C[C@@H](C)CN3C(=O)[C@H](C)NC(=O)[C@@H]3CN(C)CCN3C(=O)[C@@H]3CCCN3C2=O)cc1 [Compound 16, (S)-2-(3-(4-ETHYLPHENYL)UREIDO)-3-(M-TOLYL)-N-((6AS,12S,15AS,17R,21S,23AS)-2,17,21-TRIMETHYL-6,11,15,20,23-PENTAOXOOCTADECAHYDRO-2H,6H,11H,15H-PYRAZINO[2,1-I]DIPYRROLO[2,1-C:2′,1′-L][1]OXA[4,7,10,13]TETRAAZACYCLOHEXADECIN-12-YL)PROPANAMIDE] ({NH(4-Et-phenyl)-CO}-[Phe(3-Me)]SP[Piperazine(2S-CO,4-Me)]A[Pro(4R-Me)]; ester 2-C) | 630 ± 100 nM | >20 µM | 6.86 ± 0.7 h | 
5 | Cc1cccc(C[C@H](NC(=O)Nc2ccc3c(c2)OCO3)C(=O)N[C@H]2COC(=O)[C@@H]3C[C@@H](C)CN3C(=O)[C@H](C)NC(=O)[C@@H]3CN(C)CCN3C(=O)[C@@H]3CCCN3C2=O)c1 [Compound 17, (S)-2-(3-(BENZO[D][1,3]DIOXOL-5-YL)UREIDO)-3-(M-TOLYL)-N-((6AS,12S,15AS,17R,21S,23AS)-2,17,21-TRIMETHYL-6,11,15,20,23-PENTAOXOOCTADECAHYDRO-2H,6H,11H,15H-PYRAZINO[2,1-I]DIPYRROLO[2,1-C:2′,1′-L][1]OXA[4,7,10,13]TETRAAZACYCLOHEXADECIN-12-YL)PROPANAMIDE] ({NH(1,3-benzodioxol-5-yl)-CO}-[Phe(3-Me)]SP[Piperazine(2S-CO,4-Me)]A[Pro(4R-Me)]; ester 2-C) | 2640 ± 100 nM | >20 µM | 6.46 ± 0.4 h | 
6 | C[C@@H]1C[C@H]2C(=O)OC[C@H](NC(=O)[C@H](Cc3cccc(C(F)(F)F)c3)NC(=O)Nc3ccc(Cl)cc3F)C(=O)N3CCC[C@H]3C(=O)N3CCN(C)C[C@H]3C(=O)N[C@@H](C)C(=O)N2C1 [Compound 18, (S)-2-(3-(4-CHLORO-2-FLUOROPHENYL)UREIDO)-3-(3-(TRIFLUOROMETHYL)PHENYL)-N-((6AS,12S,15AS,17R,21S,23AS)-2,17,21-TRIMETHYL-6,11,15,20,23-PENTAOXOOCTADECAHYDRO-2H,6H,11H,15H-PYRAZINO[2,1-I]DIPYRROLO[2,1-C:2′,1′-L][1]OXA[4,7,10,13]TETRAAZACYCLOHEXADECIN-12-YL)PROPANAMIDE] ({NH(4-Cl-2-F-phenyl)-CO}-[Phe(3-CF3)]SP[Piperazine(2S-CO,4-Me)]A[Pro(4R-Me)]; ester 2-C) | 1750 ± 100 nM | >20 µM | 66.31 h | 
7 | COc1cccc(C[C@H](NC(=O)Nc2ccc(Cl)cc2F)C(=O)N[C@H]2COC(=O)[C@@H]3C[C@@H](C)CN3C(=O)[C@H](C)NC(=O)[C@@H]3CN(C)CCN3C(=O)[C@@H]3CCCN3C2=O)c1 [Compound 19, (S)-2-(3-(4-CHLORO-2-FLUOROPHENYL)UREIDO)-3-(3-METHOXYPHENYL)-N-((6AS,12S,15AS,17R,21S,23AS)-2,17,21-TRIMETHYL-6,11,15,20,23-PENTAOXOOCTADECAHYDRO-2H,6H,11H,15H-PYRAZINO[2,1-I]DIPYRROLO[2,1-C:2′,1′-L][1]OXA[4,7,10,13]TETRAAZACYCLOHEXADECIN-12-YL)PROPANAMIDE] ({NH(4-Cl-2-F-phenyl)-CO}-[Phe(3-OMe)]SP[Piperazine(2S-CO,4-Me)]A[Pro(4R-Me)]; ester 2-C) | 2520 ± 200 nM | >20 µM | 12.82 h | 
8 | Cc1cccc(C[C@H](NC(=O)Nc2ccc(Cl)cc2F)C(=O)N[C@@H]2C(=O)N3CCC[C@H]3C(=O)N3CC(=O)NC[C@H]3C(=O)N[C@@H](C)C(=O)N3C[C@H](C)C[C@H]3C(=O)O[C@H]2C)c1 [Compound 20, (S)-2-(3-(4-CHLORO-2-FLUOROPHENYL)UREIDO)-3-(M-TOLYL)-N-((6AS,12S,13S,15AS,17R,21S,23AS)-13,17,21-TRIMETHYL-3,6,11,15,20,23-HEXAOXOOCTADECAHYDRO-2H,6H,11H,15H-PYRAZINO[2,1-I]DIPYRROLO[2,1-C:2′,1′-L][1]OXA[4,7,10,13]TETRAAZACYCLOHEXADECIN-12-YL)PROPANAMIDE] ({NH(4-Cl-2-F-phenyl)-CO}-[Phe(3-Me)][aThr]P[X4]A[Pro(4R-Me)]; ester 2-C) | 710 ± 80 nM | >20 µM | 13.2 h | 
9 | Cc1cccc(C[C@H](NC(=O)Nc2ccc3c(c2)OCCO3)C(=O)N[C@@H]2C(=O)N3CCC[C@H]3C(=O)N3CCCC[C@H]3C(=O)N[C@@H](C)C(=O)N3C[C@H](C)C[C@H]3C(=O)O[C@H]2C)c1 [Compound 21, (S)-2-(3-(2,3-DIHYDROBENZO[B][1,4]DIOXIN-6-YL)UREIDO)-3-(M-TOLYL)-N-((2R,6S,8AS,14AS,20S,21S,23AS)-2,6,21-TRIMETHYL-5,8,14,19,23-PENTAOXOOCTADECAHYDRO-1H,5H,14H,19H-PYRIDO[2,1-I]DIPYRROLO[2,1-C:2′,1′-L][1]OXA[4,7,10,13]TETRAAZACYCLOHEXADECIN-20-YL)PROPANAMIDE] ({X3-CO}-[Phe(3-Me)][aThr]P[Pip]A[Pro(4R-Me)]; ester 2-C) | 370 ± 40 nM | >20 µM | >50 h | 
10 | Cc1cccc(C[C@H](NC(=O)Nc2ccc3c(c2)OCCO3)C(=O)N[C@H]2COC(=O)[C@@H]3C[C@@H](C)CN3C(=O)[C@H](C)NC(=O)[C@@H]3CCCCN3C(=O)[C@@H]3CCCN3C2=O)c1 [Compound 22, (S)-2-(3-(2,3-DIHYDROBENZO[B][1,4]DIOXIN-6-YL)UREIDO)-N-((2R,6S,8AS,14AS,20S,23AS)-2,6-DIMETHYL-5,8,14,19,23-PENTAOXOOCTADECAHYDRO-1H,5H,14H,19H-PYRIDO[2,1-I]DIPYRROLO[2,1-C:2′,1′-L][1]OXA[4,7,10,13]TETRAAZACYCLOHEXADECIN-20-YL)-3-(M-TOLYL)PROPANAMIDE] | 650 ± 60 nM | >20 µM | 46.15 h | 
